Experimental data published in patent US6090786A, “Serine proteases, their activity and their synthetic inhibitors” (priority 1994, dated 2000).
Counter-ions that a name gives are not always drawn. Like-named read-outs stand apart in the source and are kept apart here. No end group written: not given here.

How the values were obtained:
DPPIV [1] = molecular target: T1, DPPIV (Homo sapiens, UniProt P27487); experiment: biochemical; format: biochemical
T1 construct: from tissue; host or cells: prostasomes from human seminal plasma, purified on immobilized adenosine deaminase
T1 sequence (P27487 whole entry): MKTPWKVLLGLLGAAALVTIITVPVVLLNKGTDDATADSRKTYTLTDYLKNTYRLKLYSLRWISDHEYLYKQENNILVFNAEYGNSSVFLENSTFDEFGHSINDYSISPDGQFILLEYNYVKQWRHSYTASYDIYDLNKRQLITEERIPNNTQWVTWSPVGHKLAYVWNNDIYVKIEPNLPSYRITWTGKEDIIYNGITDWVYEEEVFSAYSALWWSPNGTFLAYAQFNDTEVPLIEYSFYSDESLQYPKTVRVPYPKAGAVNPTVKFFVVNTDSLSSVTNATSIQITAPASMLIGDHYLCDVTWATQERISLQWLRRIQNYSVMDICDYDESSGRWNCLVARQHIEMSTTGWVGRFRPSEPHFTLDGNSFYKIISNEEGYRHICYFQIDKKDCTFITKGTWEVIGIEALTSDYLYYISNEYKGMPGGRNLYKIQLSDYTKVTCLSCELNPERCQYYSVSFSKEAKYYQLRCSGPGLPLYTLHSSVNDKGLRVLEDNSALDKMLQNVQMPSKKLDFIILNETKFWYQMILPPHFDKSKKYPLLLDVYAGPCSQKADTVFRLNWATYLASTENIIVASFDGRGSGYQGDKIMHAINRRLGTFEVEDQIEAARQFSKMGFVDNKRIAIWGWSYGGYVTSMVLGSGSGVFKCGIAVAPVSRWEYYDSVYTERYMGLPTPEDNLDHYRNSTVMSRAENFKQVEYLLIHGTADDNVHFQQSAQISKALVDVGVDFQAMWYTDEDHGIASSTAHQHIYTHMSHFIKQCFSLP
Procedure: All enzymatic reactions were carried out in 50 mM Tris.HCl buffer pH 8.3 at 37° C. with Gly-Pro-4-Me-2-naphtylamine.HCl as substrate. One activity unit is defined as the amount of enzyme which catalyzes the conversion of 1 micromole of substrate per minute at 37° C. All experiments were carried out with the same stock solution of DPPIV containing 1.8 units/ml. The enzyme was diluted (usually 1/200 or 1/500) in reaction buffer immediately before the experiment to a suitable concentration so as not to consume more that 10% of the substrate during the incubation period.
The remaining activity was determined by adding 5 microliter of a 1 mM solution of Gly-Pro-4-Me-2-naphtylamine.HCl. The reaction mixture containing enzyme, substrate and inhibitor was incubated for 20 min at 37° C. The reaction was stopped by addition of 0.5 ml 100 mM citrate pH 4.0. The fluorescence of the sample was measured within 2 h after quenching. The measurements were done in duplicate and corrected for background fluorescence using a blanc with exactly the same composition except that the citrate solution was added before the substrate.

[2] = Functional stability of DPPIV inhibitors in the reaction medium (buffer); format: physicochemical; conditions: 50 mM TRIS buffer pH 8.3, 37° C.
Procedure: (§1) To determine the functional stability of the inhibitors in the reaction medium, a 10 mM stock solution in DMSO was diluted 50-fold in 50 mM TRIS buffer pH 8.3 and incubated at 37° C. To determine the functional stability in plasma, a 50 mM stock solution in DMSO was diluted 50-fold in fresh or freshly frozen citrated plasma from a healthy donor and incubated at 37° C. At specific time intervals an aliquot was withdrawn, added to an equal volume of DPPIV diluted in buffer or to an equal volume of plasma and the kinetics of inactivation were determined as described under b). The reduction in observed pseudo-first order rate constant is a measure for the amount of functional inhibitor lost during the incubation and allowed to estimate the half-life of the inhibitors in buffer and plasma. The following table lists the results.

[3] = Functional stability of DPPIV inhibitors in human citrated plasma; format: in vitro ADME; conditions: 37° C.
Procedure: as §1

[4] = molecular target: T2, purified prolyl oligopeptidase (Homo sapiens, UniProt P48147); experiment: biochemical
T2 construct: from tissue; host or cells: human blood cells: platelets or mononuclear cells, not specified
T2 sequence (P48147 1-710): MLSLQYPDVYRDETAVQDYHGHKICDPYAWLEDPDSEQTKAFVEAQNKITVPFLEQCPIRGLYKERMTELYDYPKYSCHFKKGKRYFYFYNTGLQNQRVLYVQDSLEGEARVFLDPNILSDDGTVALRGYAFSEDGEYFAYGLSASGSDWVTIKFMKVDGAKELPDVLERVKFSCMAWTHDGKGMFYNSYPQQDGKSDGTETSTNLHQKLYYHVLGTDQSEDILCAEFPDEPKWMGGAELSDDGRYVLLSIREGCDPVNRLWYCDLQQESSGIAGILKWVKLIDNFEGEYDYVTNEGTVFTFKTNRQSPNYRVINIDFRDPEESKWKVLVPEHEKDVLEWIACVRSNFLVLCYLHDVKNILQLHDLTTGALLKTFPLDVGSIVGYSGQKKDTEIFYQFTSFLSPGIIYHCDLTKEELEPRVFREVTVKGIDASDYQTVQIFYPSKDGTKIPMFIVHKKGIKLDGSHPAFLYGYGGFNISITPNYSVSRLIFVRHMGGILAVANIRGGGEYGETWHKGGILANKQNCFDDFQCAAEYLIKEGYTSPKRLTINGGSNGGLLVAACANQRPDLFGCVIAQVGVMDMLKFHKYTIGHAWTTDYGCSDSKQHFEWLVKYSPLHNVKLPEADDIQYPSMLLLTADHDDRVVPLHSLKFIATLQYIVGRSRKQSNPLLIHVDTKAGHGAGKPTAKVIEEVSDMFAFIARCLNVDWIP
Procedure: (§2) The remaining activity was determined by adding 5 μl substrate (Z-Gly-Pro-AMC, 5.6 mM) and measurement of the fluorescence at λex 370 nm, λem 440 nm after a further 20 min incubation at 37° C. The inhibitors were dissolved in methanol and control experiments were performed to correct for the presence of the solvents used. The IC50 value was derived from a plot, joining the residual activity and the dosis of the respective compounds (at least eight concentrations tested). The Ki values were derived from a direct linear plot (Dixon-plot). The measurements were performed in triplicate and only those lines having a correlation coefficient of at least 0.95 were used for determination of the Ki value.
Several peptides (cfr. table) were incubated with purified prolyl oligopeptidase. The compounds were dissolved in H2 O. The IC50 value was determined as previously described apart from the preincubation which was deleted. […]

DPPIV [5] = molecular target: T1, DPPIV; experiment: Stability of the inhibitor-DPPIV adduct; format: biochemical; conditions: DPPIV incubated with 0.5 mM inhibitor 1 hour, excess removed by gel filtration
Procedure: The phosphorylated enzyme is expected to hydrolyze slowly by action of solvent or nucleophilic groups on the enzyme.
The stability of the adduct was determined as follows. […] Excess inhibitor was removed by gel filtration on a PD 10 column (Pharmacia Biotech, Uppsala, Sweden) previously equilibrated with 50 mM Tris.HCl buffer, pH 8.3.

[6] = molecular target: T3, purified human platelet prolyl oligopeptidase (Homo sapiens, UniProt P48147); experiment: In vitro inhibition of PEP; format: biochemical; conditions: for IC50: 20 min preincubation at 37° C., substrate Z-Gly-Pro-AMC; for Ki: Dixon-plot
T3 construct: purified human platelet prolyl oligopeptidase; from tissue; host or cells: human thrombocytes (platelets)
T3 sequence (P48147 1-710): T2 sequence (P48147 1-710)
Procedure: as §2

[7] = peptides dissolved in H2O, no preincubation, read-out: IC50

Compound: CC[C@H](C)[C@H](N)C(=O)N1CCC(F)C1.O=C(O)C(F)(F)F (mixture of isomers) [Ile-3-Fluoro-pyrrolidine, 1-(L-Isoleucyl)-3(R,S)-fluoropyrrolidine trifluoroacetate]
- inhibitory activity on DPPIV (in words) (DPPIV [1]): particularly active inhibitor

Compound: Cl.Cl.N=C(N)NCCC[C@H](N)C(=O)N1CCCC1P(=O)(Oc1ccccc1)Oc1ccccc1 (stereo partly drawn) [(S)-Arg-(S,R)-Pro^P (OPh)2, Diphenyl (S,R)-1-[(S)-arginyl]pyrrolidine-2-phosphonate dihydrochloride]
- t1/2 in buffer [2]: 2.6 ± 0.3 h
- t1/2 in plasma [3]: 1.9 ± 0.2 h

Compound: CC[C@H](C)[C@H](N)C(=O)N1CCC[C@H]1P(=O)(Oc1ccccc1)Oc1ccccc1.Cl [(S)-Ile-(R)-Pro^P (OPh)2, Diphenyl (R)-1-[(S)-isoleucinyl]pyrrolidine-2-phosphonate hydochloride]
- t1/2 in buffer [2]: 10 ± 5 h
- t1/2 in plasma [3]: 1.4 ± 0.9 h

Compound: Cl.N[C@@H](Cc1ccccc1)C(=O)N1CCC[C@@H]1P(=O)(Oc1ccccc1)Oc1ccccc1 [AB22, Diphenyl (S)-1-[(S)-phenaylalyl]pyrrolidine-2-phosphonate hydrochloride]
- inhibitory activity on DPPIV (in words) (DPPIV [1]): inactive

Compound: CC[C@H](C)[C@H](NC(=O)[C@H](Cc1ccc(O)cc1)NC(=O)[C@@H](NC(=O)[C@H](CCCNC(=N)N)NC(=O)[C@@H](N)CC(=O)O)C(C)C)C(=O)N[C@@H](Cc1c[nH]cn1)C(=O)N1CCC[C@H]1C(=O)O [Angiotensin (1-7)]
- IC50 [4, 7]: 750 µM

Compound: CC[C@H](C)[C@H](NC(=O)[C@H](Cc1ccc(O)cc1)NC(=O)[C@@H](NC(=O)[C@H](CCCNC(=N)N)NC(=O)[C@@H](N)CC(=O)O)C(C)C)C(=O)N[C@@H](Cc1cnc[nH]1)C(=O)N1CCC[C@H]1C(=O)N[C@@H](Cc1ccccc1)C(=O)O [Angiotensin II]
- IC50 [4, 7]: 25 µM

Compound: N[C@@H](CC1CCCCC1)C(=O)N1CCC[C@H]1P(=O)(Oc1ccccc1)Oc1ccccc1 [Cyclohexylalanine-Pro^P -(OPh)2, Diphenyl (R)-1-[(S)-cyclohexylalanyl]pyrrolidine-2-phosphonate hydrochloride]
- t1/2 in buffer [2]: 4.5 ± 0.8 h
- t1/2 in plasma [3]: 0.3 ± 0.1 h

Compound: Cl.N[C@@H](Cc1ccccc1)C(=O)N1CCC[C@H]1P(=O)(Oc1ccccc1)Oc1ccccc1 [Phe-Pro^P -(OPh)2, Diphenyl (R)-1-[(S)-phenylalanyl]pyrrolidine-2-phosphonate hydrochloride]
- IC50 (DPPIV [1]): 70 µM
- stability of the adduct at room temperature (DPPIV [5]): > 3 weeks
- t1/2 in buffer [2]: 6 ± 1 h
- t1/2 in plasma [3]: 0.7 ± 0.1 h

Compound: CSCC[C@H](NC(=O)[C@H](CC(C)C)NC(=O)CNC(=O)[C@H](Cc1ccccc1)NC(=O)[C@H](Cc1ccccc1)NC(=O)[C@H](CCC(N)=O)NC(=O)[C@H](CCC(N)=O)NC(=O)[C@@H]1CCCN1C(=O)[C@H](CCCCN)NC(=O)[C@@H]1CCCN1C(=O)[C@@H](N)CCCN=C(N)N)C(N)=O [Substance P]
- IC50 [4]: 163 µM

Compound: O=C(NC(Cc1ccccc1)C(=O)N1CCC1)OCc1ccccc1 (stereo not shown) [Z-Phe-azetidine]
- IC50 [6]: 30 µM

Compound: O=C([C@@H]1CCCN1C(=O)OCc1ccccc1)N1CCC(F)C1 (stereo partly drawn) [Z-Pro-3-fluoropyrrolidine, 1-[N-Benzyloxycarbonyl-L-propyl]-3(R,S)-fluoropyrrolidine]
- inhibitory activity on PEP (in words) [6]: particularly active inhibitor
- IC50 [6]: 0.45 µM
- Ki [6]: 0.1 µM

Compound: O=C(C1CCCN1C(=O)OCc1ccccc1)N1CCC1 (stereo not shown) [Z-Pro-azetidine]
- IC50 [6]: 3 µM
- Ki [6]: 2.5 µM

Compound: O=C(C1CSCN1C(=O)OCc1ccccc1)N1CCC1 (stereo not shown) [Z-thiopro-azetidine]
- IC50 [6]: 1.8 µM
- Ki [6]: 5 µM

Compound: Cl.N[C@@H](Cc1ccc(F)cc1)C(=O)N1CCC[C@H]1P(=O)(Oc1ccccc1)Oc1ccccc1 [pF-Phe-Pro^P -(OPh)2, Diphenyl (R)-1-[(S)-p-fluorophenylalanyl]pyrrolidine-2-phosphonate hydrochloride]
- IC50 (DPPIV [1]): 100 µM
- stability of the adduct at room temperature (DPPIV [5]): > 4 weeks
- t1/2 in buffer [2]: 8.9 ± 0.1 h
- t1/2 in plasma [3]: 0.7 ± 0.1 h

Compound: RPPGFSPFR [Bradykinin]
- IC50 [4]: 7 µM
